Data as given in publication PMC9021288 (Nature Communications, 2022).
Read-outs that look alike come from different tables or passages of the source.

Columns and labels:
[1] = target: T1, hKV 1.5 (Homo sapiens, UniProt P22460); experiment: Manual patch clamp; assay type: cell-based; conditions: for Charge / Peak current: single cells and Mean, mean
T1 construct: Metrion Biosciences
Protocol: (§1) Safety studies were performed by commercial services using their standard protocols. […] Genotoxicity was investigated using the Ames test (Bacterial Reverse Mutation Assay) (Covance Laboratories Ltd, North Yorkshire, England). In vitro mammalian cell micronucleus screening assay was studied in human peripheral blood lymphocytes (BioReliance Corporation, Rockville, USA). Cardiotoxicity was determined against the hERG channel in an automated patch clamp assay using the Qpatch or against the hNaV 1.5, hKV 1.5 and hCaV 1.2 using a manual patch-clamp technique (Metrion Biosciences, Cambridge, UK). Cytotoxicity in human and rat primary hepatocytes was assessed using the CellTiter-Blue assay performed by commercial services (KaLy-Cell). The viability of HepG2 cells was monitored through the addition of 1 mM resazurin. Following 6 h incubation, the relative amount of reduced resazurin was detected in a fluorimeter and compared to the assay controls (vehicle: 0.1% DMSO and positive control: 10 µM puromycin).

[2] = tested on: TA98, TA100, TA102, TA1535, TA1537
Protocol: as §1

T1 sequence (P22460 whole entry): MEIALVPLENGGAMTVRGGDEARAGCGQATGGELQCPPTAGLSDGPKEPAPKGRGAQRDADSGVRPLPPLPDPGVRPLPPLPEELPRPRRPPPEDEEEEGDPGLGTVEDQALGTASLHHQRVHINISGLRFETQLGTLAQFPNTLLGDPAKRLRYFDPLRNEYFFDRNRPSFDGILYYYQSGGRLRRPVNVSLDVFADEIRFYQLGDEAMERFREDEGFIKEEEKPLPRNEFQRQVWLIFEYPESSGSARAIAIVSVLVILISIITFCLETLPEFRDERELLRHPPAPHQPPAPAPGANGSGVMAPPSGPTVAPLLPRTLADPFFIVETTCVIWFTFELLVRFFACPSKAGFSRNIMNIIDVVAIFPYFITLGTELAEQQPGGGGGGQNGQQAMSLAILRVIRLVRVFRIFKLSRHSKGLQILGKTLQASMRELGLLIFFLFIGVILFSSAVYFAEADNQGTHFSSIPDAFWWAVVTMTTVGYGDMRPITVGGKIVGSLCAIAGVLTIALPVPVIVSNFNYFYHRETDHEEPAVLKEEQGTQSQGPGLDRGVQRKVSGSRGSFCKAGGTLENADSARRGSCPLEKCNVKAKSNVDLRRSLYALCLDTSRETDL

## C[C@@H](CNC(=O)[C@H](O)C(C)(C)CO)NC(=O)c1cc(F)c(F)cc1F [MMV693183]
[1]; 10 µM
  Inhibition: 2.15%
[1]; hKV 1.5
  IC50: > 10 µM
[1]; hKv1.5, 300nM
  Charge: 4.53%
  Peak current: 0.19%
[1]; hKv1.5, 1uM
  Peak current: 1.06%
[1]; hKv1.5, 3uM
  Charge: 8.60%
  Peak current: 0.58%
[1]; hKv1.5, 10uM
  Peak current: 2.15%
[2]; TA98, +S-9, 5 ug/plate
  Fold Increase: 1.1
  Mean (Revertant Numbers Per Plate): 36.3
[2]; TA98, +S-9, 16 ug/plate
  Fold Increase: 1.1
  Mean (Revertant Numbers Per Plate): 37
[2]; TA98, +S-9, 50 ug/plate
  Fold Increase: 1.2
  Mean (Revertant Numbers Per Plate): 39.7
[2]; TA98, +S-9, 160 ug/plate
  Fold Increase: 1.1
  Mean (Revertant Numbers Per Plate): 36.7
[2]; TA98, +S-9, 500 ug/plate
  Fold Increase: 1.3
  Mean (Revertant Numbers Per Plate): 42.3
[2]; TA98, +S-9, 1600 ug/plate
  Fold Increase: 1
  Mean (Revertant Numbers Per Plate): 32.3
[2]; TA98, +S-9, 5000 ug/plate
  Fold Increase: 0.8
  Mean (Revertant Numbers Per Plate): 26.3
[2]; TA98, -S-9, 5 ug/plate
  Fold Increase: 0.8
  Mean (Revertant Numbers Per Plate): 22.3
[2]; TA98, -S-9, 16 ug/plate
  Fold Increase: 1.1
  Mean (Revertant Numbers Per Plate): 29.7
[2]; TA98, -S-9, 50 ug/plate
  Fold Increase: 0.9
  Mean (Revertant Numbers Per Plate): 26.3
[2]; TA98, -S-9, 160 ug/plate
  Fold Increase: 0.8
  Mean (Revertant Numbers Per Plate): 23.7
[2]; TA98, -S-9, 500 ug/plate
  Fold Increase: 0.7
  Mean (Revertant Numbers Per Plate): 20.3
[2]; TA98, -S-9, 1600 ug/plate
  Fold Increase: 0.8
  Mean (Revertant Numbers Per Plate): 22.7
[2]; TA98, -S-9, 5000 ug/plate
  Fold Increase: 1
  Mean (Revertant Numbers Per Plate): 26.7
[2]; TA98, TA100
  difference in revertant numbers vs control: < 2 fold
[2]; TA100, +S-9, 5 ug/plate
  Fold Increase: 0.9
  Mean (Revertant Numbers Per Plate): 107.3
[2]; TA100, +S-9, 16 ug/plate
  Fold Increase: 1
  Mean (Revertant Numbers Per Plate): 122.7
[2]; TA100, +S-9, 50 ug/plate
  Fold Increase: 1.1
  Mean (Revertant Numbers Per Plate): 128.3
[2]; TA100, +S-9, 160 ug/plate
  Fold Increase: 1
  Mean (Revertant Numbers Per Plate): 114.7
[2]; TA100, +S-9, 500 ug/plate
  Fold Increase: 1.1
  Mean (Revertant Numbers Per Plate): 135
[2]; TA100, +S-9, 1600 ug/plate
  Fold Increase: 0.9
  Mean (Revertant Numbers Per Plate): 104
[2]; TA100, +S-9, 5000 ug/plate
  Fold Increase: 1
  Mean (Revertant Numbers Per Plate): 115.7
[2]; TA100, -S-9, 5 ug/plate
  Fold Increase: 1.1
  Mean (Revertant Numbers Per Plate): 99.3
[2]; TA100, -S-9, 16 ug/plate
  Fold Increase: 1.1
  Mean (Revertant Numbers Per Plate): 94
[2]; TA100, -S-9, 50 ug/plate
  Fold Increase: 1.2
  Mean (Revertant Numbers Per Plate): 108.3
[2]; TA100, -S-9, 160 ug/plate
  Fold Increase: 1
  Mean (Revertant Numbers Per Plate): 86.3
[2]; TA100, -S-9, 500 ug/plate
  Fold Increase: 1.1
  Mean (Revertant Numbers Per Plate): 93
[2]; TA100, -S-9, 1600 ug/plate
  Fold Increase: 1.2
  Mean (Revertant Numbers Per Plate): 102
[2]; TA100, -S-9, 5000 ug/plate
  Fold Increase: 1.1
  Mean (Revertant Numbers Per Plate): 93
[2]; TA102
  difference in revertant numbers vs control: < 1.5 fold
[2]; TA102, +S-9, 5 ug/plate
  Fold Increase: 1.3
  Mean (Revertant Numbers Per Plate): 285
[2]; TA102, +S-9, 16 ug/plate
  Fold Increase: 1.3
  Mean (Revertant Numbers Per Plate): 295.7
[2]; TA102, +S-9, 50 ug/plate
  Fold Increase: 1.3
  Mean (Revertant Numbers Per Plate): 295
[2]; TA102, +S-9, 160 ug/plate
  Fold Increase: 1.3
  Mean (Revertant Numbers Per Plate): 298.7
[2]; TA102, +S-9, 500 ug/plate
  Fold Increase: 1.3
